Experimental data: PubChem BioAssay AID602298 (The Scripps Research Institute Molecular Screening Center, 2012)
Active and inactive are the calls of the source. No rule for the calls is given here.

Molecular target: Melanocortin receptor 4 (Homo sapiens) (UniProt P32245)
Experiment: PubChem AID 602298
Conditions: MC4R stable cells, MTII-stimulated cAMP, TR-FRET

Chain of Melanocortin receptor 4 (Homo sapiens) (P32245 whole entry, looked up): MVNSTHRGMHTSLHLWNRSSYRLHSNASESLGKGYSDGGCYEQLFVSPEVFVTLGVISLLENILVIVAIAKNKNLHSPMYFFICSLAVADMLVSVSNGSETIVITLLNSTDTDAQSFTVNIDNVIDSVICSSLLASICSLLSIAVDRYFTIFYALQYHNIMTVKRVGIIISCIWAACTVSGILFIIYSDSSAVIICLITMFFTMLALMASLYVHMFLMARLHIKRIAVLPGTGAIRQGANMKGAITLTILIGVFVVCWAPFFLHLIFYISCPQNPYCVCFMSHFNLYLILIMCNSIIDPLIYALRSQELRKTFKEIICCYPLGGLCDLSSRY

CCOP(=O)(CCP(=O)(OCC)OCC)OCC.C[CH2][Sn]([Cl])([Cl])[CH2]C was tested, and the IC50 was “inactive”.
